Laboratory results taken from US11696960B2, “Methods and compounds for detection and binding of aldehydes” (UNIVERSITY OF OTTAWA, priority 2017, dated 2023).

Key:
[1] = system: hippocampal CA3 neurodegeneration; settings: TMT rat model, Wood et al. (2006); cited from earlier work
[2] = reaction with butanal, 1:10 DMF:PBS solution; cited from earlier work
[3] = Z-spectra / CEST signal production (% MTRasym) on 300 MHz NMR; settings: for CEST signal production: hydrazone with o-sulfobenzaldehyde, Z-spectrum (FIG. 19); for CEST-MRI signal generation (in words): Z-spectra, 37° C., pH 7.4, 40 mM
Description: FIG. 27 provides Z-spectra of compounds 8b, 10a, 12, and 11 for Panels A to D, respectively. […] The absence of the hydrazone proton through the formation of a pyrazole also completely abolishes CEST-MRI signal (Panel D). Raw data points (S/So are shown as black circles), exchangeable proton and water Lorentzian curves, and CEST-MRI signal production MTRasym (%), are also shown. All Z-spectra are obtained at 37° C. and pH 7.4 with 40 mM compound solutions in 10:1 PBS:D2O unless otherwise indicated.
Electron donating (OH, OCH3) and electron-withdrawing (I, SO3, NO2) substituents were appended at the 5-position of N-amino anthranilic acid (compounds 2b-2f), both acetaldehyde (4b-4f) or 2-formylbenzenesulfonic acid-derived hydrazones (3b-3f) were prepared, and Z-spectra were acquired in 1:10 D2O:PBS at pH 7.4 on a 300 MHz NMR.
In this way, per molar signal output could be compared across hydrazone series to examine electronic contributions to Hydrazo-CEST.
(§1) The MRI contrast produced by CEST probes is dependent upon voxel-wise concentration, however previous investigations have reported non-linear concentration relationships for CEST contrast agents. In order to evaluate this dependence for Hydrazo-CEST compounds, Z-spectra were acquired for acetaldehyde (4b-4f) and 2-formylbenzenesulfonic acid-derived hydrazones (3b-3f) on a 300 MHz NMR from 5 mM to 40 mM, or the maximum solubility of the compound in neutral buffer. The dynamic range for Hydrazo-CEST signal production from each compound was then plotted using the maximum signal for each compound (6.4±0.4 ppm). Within the series of acetaldehyde-derived hydrazones, the 5-methoxy- (4f) and 5-hydroxy-substituted (4e) analogs had the broadest dynamic range for imaging signal, with the 5-methoxy-derivative showing the higher absolute % MTRasym and the most linear concentration-dependent signal production (R^2=0.98).
Z-spectra were acquired on a 300 MHz NMR in 10:1 PBS:D2O at 37° C., pH 7.4, at 40 mM, or the indicated concentration providing maximum solubility. Hydrazones were formed between 2f and (Panel A) 3-aminopropanal, (Panel B) crotonaldehyde, (Panel C) glyceraldehyde, and (Panel D) pyruvate.

[4] = Hydrazone formation kinetics and reaction completion in 1×PBS at 37° C.; settings: for kobs: pseudo-first order, carbonyl o-sulfobenzaldehyde
Description: (§2) The hydrazone peak is shown (r.t.=17.5 min for MeONA^3 and 17.2 min for MeOPH) at the time points indicated, showing a loss of the MeOPH-derived hydrazone but stability of the MeONA^3-derived product over time. All reactions were performed in 1×PBS at 37° C., and points represent mean±s.d. for n=3 trials
FIG. 13, discussed above, illustrates that the o-carboxylic acid contributes to substantial reaction completion as well as extended stability of the product hydrazone under physiological conditions. […] The hydrazone peak is shown (r.t.=17.5 min for 2f and 17.2 min for MeOPH) at the time points indicated. All reactions were performed in 1×PBS at 37° C., and points represent mean±s.d. for n=3 trials.
(§3) Repeating the methodology, however at 37° C. in 100% 1×PBS, determined the kobs for the reaction of 5-methoxy N-amino anthranilic acid (2f) and related analogs with 2-formylbenzenesulfonic acid (FIG. 13) and acetone.
(§4) Hydrazone stability was assayed both spectrophotometrically (FIG. 13, Panel A), as well as by HPLC (FIG. 13, Panel B). […] Since the signal produced by Hydrazo-CEST depends on the hydrazone form of the probe, the faster-forming and longer-lived the hydrazone product under physiological conditions, the better the imaging signal evolved and the more potentially sensitive the imaging technique.

[5] = Solubility of hydrazones in buffer; format: physicochemical
Description: as §1
In addition to local probe concentrations, micro-environmental pH can modify CEST signal production, as pH directly impacts ksw. The effect of pH on % MTRasym was evaluated for the unsubstituted, 5-hydroxy-, and 5-methoxy-substituted hydrazones derived from acetaldehyde (4a, 4e, 4f) and 2-formylbenzenesulfonic acid (3a, 3e, 3f). […] The hydroxy- and methoxy-substituted aryl-hydrazones (3e, 3f) gave better CEST signal production from pH 6.5-8.0, but both were insoluble at 40 mM at pH 6.0. The differential pH responses associated with the Hydrazo-CEST probes studied are justified by the higher predicted electron density around the ring-proximal nitrogen of the aliphatic versus aromatic hydrazones, which would favor the protonated form of the hydrazo moiety at higher pH values.

[6] = Hydrazone product stability (spectrophotometric, HPLC); format: physicochemical; settings: 1×PBS, 37° C.
Description: as §2
The carboxylic acid ortho to the hydrazine is critical to the stability of the formed hydrazone product. All reactions were performed in 1×PBS at 37° C., and points represent mean±s.d. for n=3 trials.
as §4

[7] = Trapping of MDA by N-amino anthranilic acid probe, monitored by 1H-NMR and fluorimetry; settings: incubation of NA^3 acid probe and MDA, 1H-NMR
Description: N-amino anthranilic acids can act as specific sensors for malondialdehyde. N-amino anthranilic acid reacts rapidly with MDA to form a fluorescent pyrazole. A proposed 2-step reaction scheme for the formation of the MDA-derived pyrazole (5) from 5-methoxy-N-amino anthranilic acid (3) is shown:
The formation of the MDA-derived pyrazole ring was monitored by ^1H-NMR. Hydrazone (4) formation happens within less than 1 min of incubation of the NA^3 acid probe and MDA. The pyrazole product (5) forms rapidly as well, and reaches completion within 20 min. The fluorescence ‘turn-on’ of the N-amino anthranilic acid probe is specific for MDA.

[8] = Time-lapse imaging of acetaldehyde-derived hydrazone formation in PBS; settings: room temperature
Text: N-Amino anthranilic esters can be fast-reacting aldehyde sensors. N-amino anthranilate methyl ester reacts rapidly with endogenous reactive aldehydes. The reaction of 5-methoxy-N-amino anthranilate methyl ester (1) with a reactive aldehyde results in the formation of […] in PBS at room temperature is shown: […]

[9] = Hydrazone formation kinetics under pseudo-first order conditions in 1×PBS at 37° C.; settings: carbonyl acetaldehyde
Description: The carboxylic acid ortho to the hydrazine is critical to the stability of the formed hydrazone product. All reactions were performed in 1×PBS at 37° C., and points represent mean±s.d. for n=3 trials. […]

[10] = Hydrazone formation kinetics and reaction completion in 1×PBS at 37° C.
Description: as §3, §4

[11] = Hydrazone formation with glucose under physiological conditions (interference test); settings: 37° C., 1 PBS, pH=7.4, within 4 h of incubation
[12] = Hydrazo-CEST MRI phantom imaging (3 T and 7 T) and in situ hydrazone formation
Description: In the upper panel, a Phantom image and Z-spectra of hydrazine 2f and hydrazones 3f and 4f were acquired at the indicated field strength, 37° C., pH 7.4, and 40 mM concentration.
Values indicate the % MTRasym±the standard deviation of the off-resonance measurements once the system had reached steady state.
The kinetics of Hydrazo-CEST signal production through hydrazone formation were also evaluated in the MRI at 37° C. in 1×PBS at pH=7.4 (FIG. 28). Either PBS or a PBS solution of 2-formylbenzenesulfonic acid at a final concentration of 20 mM was injected into the imaging phantom, and Z-spectra were acquired every 4.5 min to monitor hydrazone formation.
A single saturation peak at 6.4 ppm was observed 4.5 min after aldehyde injection. […] This MRI data confirms that Hydrazo-CEST probes are rapidly activated by aldehydes under physiological conditions, and are readily detectable by 7 T MRI. Both hydrazine and hydrazone functionalities are utilized in medications broadly spanning indications from anti-infectives and anti-parasitics, to anti-cancer agents.

[13] = Preliminary in vitro toxicity assays

In the case of `ONCc1ccccc1` [N-benzylhydroxylamine], the protection against neurodegeneration [1] is given as “provided protection against neurodegeneration”.
For `NNc1ccccc1C(=O)O` [Compound 101, N-amino anthranilic acid], the “pseudo-first-order rate constant (kobs)” value [2] is given as 1.5 ± 0.2 min⁻¹.
With `O=C(O)c1cccnc1N/N=C/c1ccccc1S(=O)(=O)O` [Compound 319] the CEST signal production [3] was about 25%.
With `COc1ccc(N/N=C/C(O)CO)c(C(=O)O)c1` (stereo not shown) [Compound 5c] the “CEST-MRI signal generation (in words)” value [3] was “limited signal production”.
With `C/C=N/Nc1ccc(OC)cc1C(=O)OC` [Compound 8b, reference compound] the “CEST-MRI signal generation (in words)” value [3] was “complete loss of the CEST effect” and the “CEST-MRI signal generation (in words)” value ([3]; listed as compound 302) was “prevents any CEST-MRI signal generation”.
For `O=C(O)c1cccc(O)c1` [Compound 12, 3-Hydroxybenzoic acid, reference compound], the “CEST-MRI signal generation (in words)” value [3] was “nearly completely abolishes signal production”.
Compound `COc1ccc(NN)cc1.Cl.Cl` [Compound 9, 4-methoxyphenyl hydrazine dihydrochloride, reference compound] has a kobs [4] of 0.119 ± 0.02 min⁻¹.
In the case of `COc1ccc(NN=Cc2ccccc2S(=O)(=O)O)c(C(=O)O)c1` [Compound 3f], the solubility ([5]; 40 mM, pH 6.0) is reported as “insoluble” and the “stability of hydrazone product” value [6] is reported as “long-term stability”.
In the case of `COc1ccc(-n2cccn2)c(C(=O)O)c1` [Compound 5], the “time to completion of pyrazole product formation” value [7] is reported as at most 20 min and the “CEST-MRI signal generation (in words)” value [3] is reported as “Complete abolishment of signal production”.
For `CC=NNc1ccccc1C(=O)O` [Compound 4a], the solubility ([5]; neutral buffer) was “limited solubility beyond 20 mM” and the solubility ([5]; pH 6.0-8.0) was “completely soluble”.
For `COC(=O)c1cc(OC)ccc1NN` [Compound 7, 5-methoxy-N-amino anthranilate methyl ester, reference compound], the kobs [4] was 0.0008 ± 5.5e-05 min⁻¹ and the “time to hydrazone formation after aldehyde addition” value [8] was at most 1 s.
With `C/C=N/Nc1ccc(OC)cc1C(=O)O` [Compound 4f] the MTRasym ([3]; 5 mM) was 9%, the “CEST-MRI signal generation (in words)” value [3] was “substantial signal” and the solubility ([5]; 40 mM, pH 6.5) was “not soluble”.
For `COc1ccc(NN)c(C(=O)O)c1` [Compound 2f, 5-methoxy N-amino anthranilic acid], the kobs [9] was 0.012 ± 0.001 min⁻¹, the kobs [4] was 0.112 ± 0.03 min⁻¹ and the “reaction completion (hydrazone formation)” value ([4]; within 30 min of initiation) was about 90%. The kobs ([10]; pseudo-first order, 37° C., carbonyl acetone) was 0.017 ± 0.0004 min⁻¹, the product formation ([10]; reaction with acetone, 37° C. (data not shown)) was under 25% and the “hydrazone formation with D-glucose” value [11] was “no hydrazone formation”. The “CEST-MRI signal generation (in words)” value [3] was “little CEST-MRI signal”, the “maximum plateau % MTRasym” value ([12]; 40 mM hydrazine plus 20 mM 2-formylbenzenesulfonic acid, 37° C., 1×PBS, pH 7.4) was 4.6±0.7 % MTRasym and the “CEST contrast in MRI (in words)” value ([12]; 37° C., pH 7.4, 40 mM) was “produced no CEST contrast”. The “Hydrazo-CEST signal as share of maximal signal” value ([12]; within the first 4.5 min after aldehyde injection) was over 50% and the in vitro toxicity [13] was “initial safety”.
Work on `O=C(O)c1ccccc1NN=Cc1ccccc1S(=O)(=O)O` [Compound 3a] yielded a CEST signal production [3] of about 5%.
